One block for each molecule: values may come before it.
How the values were obtained:
[1] = test system: Vero; assay: Inhibition of DENV-2 RNA-dependent RNA polymerase in African green monkey Vero cells measured for 24 to 72 hrs relative to control; format: cell-based; settings: dengue virus type 2, time 24-72 hrs, dose or concentration not given here
[2] = Cytotoxicity against African green monkey Vero cells; format: toxicity, cell-based; settings: chlorocebus sabaeus
[3] = test system: Dengue virus; assay: Antiviral activity against DENV NS5/RNA-dependent RNA polymerase; format: functional, organism-based
[4] = test system: Zika virus; assay: Antiviral activity against Zika virus infected in African green monkey Vero cells assessed as reduction in viral replication incubated for 24 hrs; format: functional, organism-based
[5] = test system: dengue virus type 2; assay: Antiviral activity against DENV-2 RNA-dependent RNA polymerase infected in human Huh-7 cells assessed as reduction in viral replication by RT-PCR analysis; format: functional, organism-based
[6] = Inhibition of DENV RNA-dependent RNA polymerase; set-up: species or system dengue virus type 1
[7] = molecular target: T1, Nonstructural protein 5 (Dengue virus, UniProt V5TFZ2); assay: Inhibition of full length His-tagged DENV-2 NS5 incubated for 1 hr; set-up: species or system dengue virus type 2
[8] = molecular target: T1, Nonstructural protein 5; assay: Binding affinity to full length His-tagged DENV-2 NS5 assessed as dissociation constant; set-up: species or system dengue virus type 2
[9] = test system: dengue virus type 4; assay: Binding affinity to DENV-4 RNA-dependent RNA polymerase assessed as change in enthalpy by ITC analysis
[10] = Binding affinity to DENV-3 RNA-dependent RNA polymerase assessed as dissociation constant incubated for 40 sec by surface plasmon resonance analysis; set-up: species or system dengue virus type 3
[11] = molecular target: T1, Nonstructural protein 5; assay: Inhibition of DENV-4 NS5; set-up: species or system dengue virus type 4
[12] = Inhibition of DENV-3 RNA-dependent RNA polymerase; set-up: species or system dengue virus type 3
[13] = molecular target: T1, Nonstructural protein 5; assay: Inhibition of DENV NS5/RNA-dependent RNA polymerase
[14] = Inhibition of DENV RNA-dependent RNA polymerase in hamster BHK-21 cells; format: cell-based, Dengue virus
[15] = Cytotoxicity against hamster BHK-21 cells; format: toxicity, cell-based, Mesocricetus auratus
[16] = molecular target: NS5 (Zika virus) (UniProt A0A143MHK7); assay: Inhibition of Zika virus RNA-dependent RNA polymerase relative to control; settings: concentration not given here
[17] = Inhibition of DENV RNA-dependent RNA polymerase activity; set-up: species or system Dengue virus
[18] = test system: Dengue virus; assay: Inhibition of DENV RNA-dependent RNA polymerase relative to control; settings: concentration not given here
[19] = test system: Zika virus; assay: Antiviral activity against Zika virus RNA-dependent RNA polymerase infected in African green monkey Vero cells; format: functional, organism-based
[20] = Selectivity index, ratio of CC50 for cytotoxicity against African green monkey Vero cells to EC50 for antiviral activity against Zika virus RNA-dependent RNA polymerase infected in African green monkey Vero cells; format: toxicity, cell-based; settings: read-out: Ratio CC50/EC50
[21] = Cytotoxicity against African green monkey Vero cells incubated for 4 hrs by Cell-titer glo assay; format: toxicity, cell-based; settings: chlorocebus sabaeus
[22] = molecular target: T2, NS5 (Zika virus, UniProt A0A143MHK7); assay: Inhibition of Zika virus RNA-dependent RNA polymerase activity
[23] = test system: Dengue virus; assay: Antiviral activity against DENV RNA-dependent RNA polymerase infected in human PBMC; format: functional, organism-based
[24] = molecular target: Nonstructural protein 5 (Dengue virus) (UniProt V5TFZ2); assay: Binding affinity to DENV-3 NS5 assessed as gibbs free energy change; settings: dengue virus type 3
[25] = test system: Zika virus; assay: Antiviral activity against Zika virus SMGC-1 infected in human Huh-7 cells assessed as reduction in viral titer; format: functional, organism-based; settings: SMGC-1, Huh-7
[26] = molecular target: T2, NS5; assay: Inhibition of Zika virus wild type RNA-dependent RNA polymerase using ATP as substrate

T2 sequence (A0A143MHK7 whole entry): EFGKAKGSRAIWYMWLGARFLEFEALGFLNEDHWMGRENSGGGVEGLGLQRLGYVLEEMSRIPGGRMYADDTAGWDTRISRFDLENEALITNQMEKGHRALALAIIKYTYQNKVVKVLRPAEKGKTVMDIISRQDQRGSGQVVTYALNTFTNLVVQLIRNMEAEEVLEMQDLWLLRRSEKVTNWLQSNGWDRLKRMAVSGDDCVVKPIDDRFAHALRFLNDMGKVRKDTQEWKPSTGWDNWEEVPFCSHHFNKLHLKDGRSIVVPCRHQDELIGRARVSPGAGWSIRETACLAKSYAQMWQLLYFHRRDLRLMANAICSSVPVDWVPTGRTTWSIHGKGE
Chain of NS5 (Zika virus) (A0A143MHK7 as listed by the source): as the sequence (A0A143MHK7 whole entry) above

Compound: CC(C)[C@H](N)C(=O)OCC(CO)OCn1cnc2c(=O)[nH]c(N)nc21 (stereo partly specified)
inhibition [1]: 10%

Compound: O=C(N[C@@H](Cc1ccc(O)cc1)C(=O)O)c1cc(-c2ccccc2)c(=O)n2c1sc1ccc(C3CCCCCC3)cc12
EC50 [4]: 1600 nM
EC50 [5]: 3700 nM

Compound: Nc1cc(C(F)(F)F)ccc1NC(=O)Nc1cccc(S(=O)(=O)Nc2ccc(C(=O)O)cc2)c1
IC50 [6]: 91000 nM

Compound: O=C1N/C(=N\c2nnc(-c3ccccc3Cl)s2)S/C1=C\c1cccc(F)c1
IC50 [7]: 2100 nM
Kd [8]: 9100 nM

Compound: COc1cc(O)c2c(=O)cc(-c3ccc(O)cc3)oc2c1-c1cc(-c2cc(=O)c3c(O)cc(O)cc3o2)ccc1O [SOTETSUFLAVONE]
IC50 [13]: 160 nM

Compound: O=C(N[C@@H](Cc1cccc(O)c1)C(=O)O)c1cc(-c2ccccc2)c(=O)n2c1sc1ccc(C3CCCCC3)cc12
EC50 [4]: 800 nM
EC50 [5]: 2900 nM

Compound: C#Cc1c(C#N)ncn1[C@@H]1O[C@H](CO)[C@@H](O)[C@H]1O
IC50 [14]: 550 nM
CC50 [15]: 3990 nM

Compound: C[C@@]1(F)[C@H](O)[C@@H](COP(=O)(O)OP(=O)(O)OP(=O)(O)O)O[C@H]1n1ccc(N)nc1=O [PSI-6130-TP]
inhibition [16]: 67.4%
IC50 [17]: 1600 nM
inhibition [18]: 85%

Compound: O=C(NCc1ccc(O)cc1)c1cc(-c2ccccc2)c(=O)n2c1sc1ccc(C3CCCCC3)cc12
EC50 [4]: 1000 nM
EC50 [5]: 1800 nM

Compound: O=C(NC(=S)Nc1ccc(N2CCN(C(=O)c3cccs3)CC2)cc1)c1sc2ccccc2c1Cl
EC50 [19]: 94 nM
selectivity ratio [20]: 206
CC50 at 4 h [21]: 19400 nM

Compound: CCC(CC)COC(=O)[C@H](C)N[P@](=O)(OC[C@H]1O[C@@](C#N)(c2ccc3c(N)ncnn23)[C@H](O)[C@@H]1O)Oc1ccccc1
IC50 [17]: 1400 nM
IC50 [22]: 1360 nM

Continued, in another order:

IC50 [3]: 2200 nM
Compound: CCCC/C=C/C#CC#CCCCCCCCC(=O)O [EXOCARPIC ACID]
CC50 [2]: 23000 nM

EC50 [4]: 1000 nM
EC50 [5]: 3500 nM
Compound: O=C(O)CCNC(=O)c1cc(-c2ccccc2)c(=O)n2c1sc1ccc(C3CCCCC3)cc12

IC50 [3]: 2700 nM
Compound: CCCC/C=C/C#CCCCCCCCC(=O)O
CC50 [2]: 30000 nM

deltaH [9]: -7.7 kcal/mol
Kd [10]: 67000 nM
IC50 [11]: 210000 nM
IC50 [12]: 205 nM
Compound: COc1ccc(CC(=O)O)cc1-c1ccsc1

inhibition [16]: 72.2%
Compound: CO[C@@H]1[C@H](O)[C@@H](COP(=O)(O)OP(=O)(O)OP(=O)(O)O)O[C@H]1n1ccc(N)nc1=O

EC50 [23]: 370 nM
Compound: C#C[C@]1(O)[C@H](n2ccc(=O)[nH]c2=O)O[C@](F)(CO[P@](=O)(N[C@@H](C)C(=O)OC(C)C)Oc2ccccc2)[C@H]1O

deltaG [24]: -10.5 kcal/mol
IC50 [26]: 1130 nM
Compound: CCNC(=O)Cn1cnc(NC(=O)c2cc(-c3ccc(C)cc3)nc3onc(C)c23)n1
EC50 [25]: 7430 nM
